Converted amounts (≈) assume the structure as drawn.
Assays:
Matricaria inodora = assay: Field trial, post-emergence herbicidal activity; assay type: in vivo; conditions: MATIN, 31 DAT
Method: (§1) Winter wheat was seeded in different soils ranging from sandy loam to clay loam soil containing 2.1-5.5% of organic matter.
(§2) For the post emergence treatment, the plants were first grown up to the 2 leaf stage (BBCH 12). Here, the herbicidal compositions were suspended or emulsified in water as distribution medium and sprayed using finely distributing nozzels.
(§3) The herbicidal activity for the individual herbicidal compositions (solo and mixture applications) was assessed 31 days after treatment (DAT).
(§4) The evaluation for the damage on winter wheat and undesired weeds caused by the tested compositions was carried out using a scale from 0 to 100%, compared to the untreated control plants. Here, 0 means no damage and 100 means complete destruction of the plants.

Raphanus raphanistrum = assay: Field trial, post-emergence herbicidal activity; assay type: in vivo; conditions: RAPRA, 31 DAT
Method: as §1, §2, §3, §4

Alopecurus myosuroides = assay: Field trial, post-emergence herbicidal activity; assay type: in vivo; conditions: ALOMY, 31 DAT
Method: as §1, §2, §3, §4

Triticum aestivum = assay: Field trial, phytotoxicity (damage) on winter wheat; conditions: TRZAW (winter wheat, crop damage), post-emergence, 31 DAT
Method: as §2
Cinmethylin was used in the solo application as an emulsion concentrate with an active ingredient concentration of 750 g/l.
The mixture of cinmethylin and picolinafen as an emulsifiable concentrate was prepared from cinmethylin as an emulsifiable concentrate (EC) and picolinafen as a water dispersable granule (WG) having an active ingredient concentration of 500 g/l and 50 g/l, respectively.
as §3, §4

[1] = at 20° C.; cited from earlier work
Capsella bursa-pastoris = assay: Field trial, post-emergence herbicidal activity; assay type: in vivo; conditions: CAPBP, 31 DAT
Method: as §1, §2, §3, §4

Lamium amplexicaule = assay: Field trial, post-emergence herbicidal activity; assay type: in vivo; conditions: LAMAM, 31 DAT
Method: as §1, §2, §3, §4

Cc1ccccc1CO[C@@H]1C[C@@]2(C(C)C)CC[C@]1(C)O2 (racemic) [cinmethylin, (±)-2-exo-(2-methylbenzyloxy)-1-methyl-4-isopropyl-7-oxabicyclo[2.2.1]heptane]
herbicidal activity (Matricaria inodora; use rate 500 g ai/ha): 62%
herbicidal activity (Raphanus raphanistrum; use rate 500 g ai/ha): 10%
herbicidal activity (Alopecurus myosuroides; use rate 500 g ai/ha): 100%
herbicidal activity (Triticum aestivum; use rate 500 g ai/ha): 0%
herbicidal activity (Triticum aestivum; use rate 1000 g ai/ha): 0%
solubility in water [1]: 63 µg/mL (≈ 230 µM)
herbicidal activity (Capsella bursa-pastoris; use rate 500 g ai/ha): 65%
herbicidal activity (Lamium amplexicaule; use rate 500 g ai/ha): 53%

O=C(Nc1ccc(F)cc1)c1cccc(Oc2cccc(C(F)(F)F)c2)n1 [picolinafen (WG), picolinafen]
herbicidal activity (Matricaria inodora; use rate 50 g ai/ha): 69%
herbicidal activity (Raphanus raphanistrum; use rate 50 g ai/ha): 98%
herbicidal activity (Alopecurus myosuroides; use rate 50 g ai/ha): 0%
herbicidal activity (Triticum aestivum; use rate 50 g ai/ha): 0%
herbicidal activity (Triticum aestivum; use rate 100 g ai/ha): 0%
herbicidal activity (Capsella bursa-pastoris; use rate 50 g ai/ha): 96%
herbicidal activity (Lamium amplexicaule; use rate 50 g ai/ha): 94%

Reference: patent US11019816B2, “Composition comprising cinmethylin-containing microparticles and a further herbicide” (BASF Agro B.V., priority 2017, dated 2021)
